The text below walks through data of a melting point compilation (Tetko et al.; mined from patent text by program, amines drawn as free bases though some values may be those of a salt).

Regarding `Cc1[nH]c(C=O)c(C)c1CCO`, the melting point fell in the range of 125 to 127 °C.
`Nc1ccc(CCc2ccc(Cl)c(Cl)c2)cc1` had a melting point of 68 to 70 °C.
The figure for `CC12CCC(CC1=C=C1C=CC(Nc3nc(Cl)nc(Cl)n3)=CC1)C2(C)C` (configuration not stated) is 238 °C.
For `CCOC(=O)COc1ccc(N2CCN(S(=O)(=O)c3ncn(C)c3Cl)CC2)cc1` the value was 148 to 149 °C.
For the compound `CC(C)Oc1ccc(NC=O)cc1C(F)(F)F`, the melting point fell in the range of 80 to 82 °C.
For `CC(C)(C)OC(=O)N1CCC(n2c(=O)n(CC(F)(F)F)c3cc(F)ccc32)CC1` the value was 172 to 173 °C; for `O=C(O)c1cncn1C(c1ccccc1)C1CCCCC1` (configuration not stated), 250 °C; for `CN(C)C(=O)COc1cc(Cl)ccc1C(=O)NCCN1CCN(CCc2ccccc2)CC1`, 159 to 160 °C.
`O=C(O)COc1cccc(COC(=O)N(c2ccccc2)c2ccccc2)c1Cl`: the melting point lay in the range of 182 to 183 °C.
The figure for `CC(O)Cn1ccc2ccc(F)c(Cl)c21` (racemic) is 85 to 87 °C.
For `CCCC(NOCC)=C1C(=O)CC(C2=C(C)CCCC2(C)C)C(C(=O)OC)C1=O` (configuration not stated) the value was 70 °C.
For `O=C1NC(=O)C(Cc2ccc(OCc3nc(-c4ccccc4)cs3)cc2)S1` (configuration not stated) the value was 164 to 165 °C; for `CCOC(=O)c1c(C)nc2c3cccc(Cl)c3ccn12`, 140 to 141 °C; for `O=Cc1cc(O)c(O)cc1[N+](=O)[O-]`, 201 °C.
`CC[C@H]1COC(=O)N1c1nc(-c2ccc(C#N)cc2)c(Cl)s1` returned a melting point of 157 to 159 °C.
With `CN(c1cccc2cc(C(=O)O)[nH]c12)S(=O)(=O)c1nccn1C`, the melting point is 241 to 242 °C.
For `CCCn1c(=O)c2c(nc(C=Cc3ccc(C(=O)O)cc3OC)n2C)n(CCC)c1=O` the value was 285 to 286 °C; for `CCOC(=O)[C@H](Cc1cc(Cl)c(N)c(Cl)c1)NC(=O)C(F)(F)F`, 124 to 125 °C; for `C[C@@H](c1ccc(F)cc1)N1Cc2cncn2C(C)(c2ccc(C#N)cc2)C1=O` (some centres not stated), 78 to 82 °C.
The figure for `NC(=O)N1CC(Oc2ccc(Cl)cc2Cl)C1` is 169 to 170 °C; for `Cc1ccc2c(c1)C(C(=O)Nc1c(Br)cccc1Br)c1ccccc1CO2` (configuration not stated) it is 184 °C; for `O=C(O)c1ccc2c(c1)Sc1ccccc1C=C2` it is 251 to 254 °C.
The figure for `CC1(C)CC(=O)C2=C(C1)NC1=C(C(=O)CC(C)(C)C1)C2c1ccc(OC(F)(F)F)cc1` is 234 °C; for `COC(=O)c1cc(C(=O)c2c(C)c(-c3cccc(OCC(=O)O)c3)c3ccccn23)ccc1N` it is 160 °C.
`Cc1cc(OCc2ccc(-c3ccc(F)c(C(F)(F)F)c3)nc2C)ccc1OC(C)(C)C(=O)O` yielded a melting point of 141 to 143 °C.
The figure for `CCOC(=O)COc1ccc(C=O)cc1` is 39 °C; for `O=C1NC(=O)c2ccc(Br)cc2/C1=C/c1cc(Br)c(O)c(Br)c1` it is 167 to 168 °C.
For the compound `CCCc1nc(C)n2nc(C)nc2c1Cc1ccc(-c2ccccc2C#N)cc1`, the melting point amounted to 132 °C.
For `COC(=O)c1sc(Br)cc1N` the value was 173 to 176 °C; for `CCCC(=O)c1ccc(NC(C)=O)cc1`, 141 to 143 °C.
Regarding `Cc1cccc(Nc2ccccc2C(=O)OCC(=O)N(C)C)c1C`, the melting point was in the range of 85 to 86 °C.
For `CCCc1nc(C)n2cnnc2c1Cc1ccc(-c2ccccc2-c2nnn[nH]2)cc1` the value was 182 to 184 °C; for `N#Cc1ccc(C2=NOC3(CCN(C(=O)CCCC(=O)O)CC3)C2)cc1`, 183 to 185 °C.
For `O=C1c2c(O)ccc(O)c2C(=O)c2c(NCCN3CCC(O)C3)ccc(NCCN3CCC(O)C3)c21` (configuration not stated) the value was 197 to 199 °C; for `CCOC(=O)C(=NOC)c1nc(N)cc(Sc2ccccc2)n1`, 154 to 156 °C; for `COC(=O)CC[C@H](NC(=O)c1ccc(N(C)CCc2c(NC(C)=O)nc(NC(C)=O)[nH]c2=O)cc1)C(=O)OC`, 168 to 175 °C.
For `CC(C)c1ccccc1N1/C(=N\N=C/c2ccc(-c3ncn(-c4ccc(OC(F)(F)F)cc4)n3)cc2)SCC1(O)C(F)(F)F` (configuration not stated) the value was 185 to 187 °C; for `O=C(OCc1ccccc1)C(CO)N(C(=O)OCc1ccccc1)C(=O)c1ccccc1` (configuration not stated), 94 to 95 °C; for `Cc1c(Br)nc2n1CCc1ccccc1C2=C1CCN(C)CC1`, 116 °C.
`CC(C)(C)CC(=O)NN1C(=O)C(NC(=O)Nc2cccc(N)c2)CC(c2ccccc2)CC1c1ccccc1` (configuration not stated) came in with a melting point of 195 to 205 °C.
For `O=C(c1ccccc1)C(Cl)Cn1cnc(Cl)c1` (configuration not stated) the value was 106 to 110 °C.
Take `CCN(CC)C(=O)Cc1c(C)n(Cc2ccccc2)c2ccc(OCc3nc4ccccc4s3)cc12`: the melting point was 111 to 112 °C.
`CC1(C)OC(c2ccc(S(N)(=O)=O)cc2)=C(c2cccc(C(F)(F)F)c2)C1=O` registered a melting point of 129 to 130 °C.
The figure for `CCC(COCc1cc(OC)c(O)c(OC)c1)(c1cccs1)N(C)C` (configuration not stated) is 126 to 127 °C; for `CN1CCN(C(=S)Nc2cc3sc(C(C)(C)C)nc3cc2N2CCN(C)CC2)CC1` it is 190 to 193 °C; for `COC(=O)Nc1cc(-c2nccs2)[nH]c1C(CC1CCOCC1)c1ccc(S(=O)(=O)C2CC2)cc1` (configuration not stated) it is 120 to 122 °C.
The figure for `CON(C)C(=O)Nc1ccc(OCCc2ccc(C(C)C)cc2)cc1` is 81 to 82 °C; for `CC1(C)COC(CCc2ccc(NC=NO)cc2)OC1` it is 159 to 160 °C; for `CCOC(=O)c1ccccc1-c1cc(-c2ccc(Cl)cc2Cl)no1` it is 85 to 86 °C.
The figure for `CNC(=S)n1nc(Nc2ccccc2)nc1N` is 196 to 198 °C.
On to `COc1ccc(CN2C(=O)C3(COc4cc5onc(N)c5cc43)c3ccccc32)cc1` (configuration not stated), for which the melting point is 214 to 216 °C.
The figure for `O=C1CSC(=S)N1N=c1sc2ccccc2s1` is 295 to 300 °C.
The figure for `N#CCCNC(=O)c1cccc(-c2cccc(Oc3ccc4[nH]ccc4c3)n2)c1` is 150 to 151 °C; for `Cn1nc(COc2ccc(CCCC#N)cc2)nc1-c1ccccc1` it is 106 to 107 °C; for `Cc1cc(C)c(-n2nnc3c(-c4ccccc4C(F)(F)F)nc(C)nc32)c(C)c1` it is 139 °C.
The figure for `Cc1cccc(-c2nc(O)c(C)s2)c1Cl` is 183 to 184 °C; for `O=C1c2ccccc2CCn2cnnc21` it is 187 °C; for `CN(C)C1=NCc2ccc(Cl)cc2O1` it is 118 to 120 °C.
On to `CC(=O)NC[C@H]1CN(c2ccc(N3CCC4(CC3)NCCS4)c(F)c2)C(=O)O1`, for which the melting point lay in the range of 150 to 152 °C.
For `O=C(O)c1ccc(OC(=O)c2cccc(C(=O)Oc3ccc(C(=O)O)cc3)c2)cc1` the value was 290 to 300 °C; for `CC(C)(C)OC(=O)CCN1CCC(O)(c2ccc(O)cc2CO)CC1`, 68 to 70 °C.
The figure for `CN1CCN(C(=O)c2ccc(-c3cnc4c(c3)N(Cc3ccccc3)CCN4)cc2)CC1` is 180 to 181 °C.
The figure for `CSc1ccc2ncc([N+](=O)[O-])c(-c3ccccc3)c2c1` is 131 to 133 °C.
The compound `O=C(OCc1ccccc1)N1CCc2c([nH]c3ccccc23)C1c1ccc2c(c1)OCO2` (configuration not stated) returned a melting point of 98 to 101 °C.
For `COC(Cn1cncn1)(OC)c1ccc(Cl)cc1Cl` the value was 87.7 °C.
The figure for `COC1=C(OC)C(=O)C2=C(CCC(CCOc3cccnc3)CC2)C1=O` is 80 to 82 °C; for `COc1c(C(=O)Nc2ccc(-n3nc(C(F)(F)F)cc3C(F)(F)F)cc2)csc1Cl` it is 119 to 120 °C; for `Fc1ccc(-c2nc(SCSc3nc(-c4ccc(F)cc4)c(-c4ccc(F)cc4)[nH]3)[nH]c2-c2ccc(F)cc2)cc1` it is 265 °C.
The figure for `CN(C)c1ccc(C2(c3ccc(N(C)C)cc3N(C)C)OC(=O)c3ccc(N(C)C)cc32)c(N(C)C)c1` is 188 to 192 °C.
As to `Cc1ccc(N(Cc2cccnc2)S(C)(=O)=O)cc1`, the melting point was in the range of 143 to 146 °C.
For `CCCCCCCCNC(=O)N(CCCCCSc1nc(-c2ccccc2)c(-c2ccccc2)[nH]1)c1ccccc1` the value was 74 to 76 °C.
For `CCCCCCCCCCCCCCCCCCCCC(NC(C)=O)(C(=O)OCC)C(=O)OCC` the value was 76.5 to 77.5 °C; for `CS(=O)(=O)c1nnc(-c2ccccc2Nc2cccc(C(F)(F)F)c2)o1`, 144 to 148 °C.
The figure for `O=c1[nH]c(N[N+](=O)[O-])ncc1Cc1ccco1` is 183 to 184 °C.
`CC1(c2ccc(F)cc2)OC(C=Cc2ccccn2)=CC1=O` (configuration not stated) displayed a melting point of 70 to 72 °C.
`CCCCCCCCCCCCCCCC(=O)OCC(O)COC(=O)CCCCCCCCCCCCCCC` registered a melting point of 71 to 73 °C.
Take `C=CCOc1ccc(C(=O)C=Cc2cc(OC)c(CCCCCC)c(OC)c2)cc1`: the melting point was in the range of 77.9 to 78.2 °C.
The figure for `COC(=O)c1ccc(C)nc1Oc1nc(OC)cc(OC)n1` is 99 to 103 °C; for `Cn1ccc(-c2sc(NC(=O)c3ccncc3)nc2-c2ccco2)cc1=O` it is 280 to 282 °C.
For `Cc1nc(N)sc1C(=O)OC(C)(C)C` the value was 167 to 170 °C; for `COCn1cncc1C[C@H](NC(=O)C(Cc1cccc2ccccc12)Cc1cccc2ccccc12)C(=O)OC`, 182 to 185 °C.
The compound `CCN(CC)C(=O)c1cc(-c2cccc([N+](=O)[O-])c2)c2sccc2c1` came in with a melting point of 106 °C.
For `CCOC(=O)NS(=O)(=O)c1ccc(C(=O)C=Cc2cc(-c3cc4ccccc4[nH]3)c(OC)cc2OC)cc1` the value was 165 to 175 °C.
`C1=Nc2cccc(-c3ccoc3)c2C12COc1cc3c(cc12)OCO3` (configuration not stated) registered a melting point of 270 to 272 °C.
For `COc1cc2nc(N3CCN(c4nc5ncccc5o4)CC3)nc(N)c2cc1OC` the value was greater than 250 °C; for `COC(=O)c1ccc(Cl)cn1`, 83 to 86 °C; for `Cc1ccc(S(=O)(=O)NC(=O)C2C(=O)CC(C)(C)CC2=O)cc1`, 94 to 108 °C.

A word on the melting point: it is the temperature, or range, at which the solid turns liquid.
